Experimental data reported in PubChem BioAssay (NCI).
Where “and” joins values, the source holds several entries; their conditions need not be identical. Equal values may be shown once.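 Grown in 96-well plates, cells were treated for 48 hours with each compound at five concentrations. Insufficient inhibition: endpoint recorded as highest concentration tested. GI50 = concentration required for 50% inhibition of growth. The concentration for full growth arrest is given as TGI.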

Experiments:
Assay in all cases: DTP human tumour cell line panel, 48 h
HOP-18 NSCLC = test system: HOP-18 NSCLC
DLD-1 colon = test system: DLD-1 colon
KM20L2 colon = test system: KM20L2 colon
M19-MEL melanoma = test system: M19-MEL melanoma
SNB-78 CNS = test system: SNB-78 CNS
NCI/ADR-RES ovarian = test system: NCI/ADR-RES ovarian
PC-3 prostate = test system: PC-3 prostate
DU-145 prostate = test system: DU-145 prostate
BT-549 breast = test system: BT-549 breast
MDA-MB-231 breast = test system: MDA-MB-231 breast

Structure (SMILES) | TGI (HOP-18 NSCLC) [µM] | TGI (DLD-1 colon) [µM] | TGI (KM20L2 colon) [µM] | TGI (M19-MEL melanoma) [µM] | TGI (SNB-78 CNS) [µM] | other results
COc1cccc2c1C1=CC(=O)CCC1C(C)(C)O2 (stereo not given) | > 100 | > 100 | > 100 | > 100 | > 100 | –
CN(C)CCNC(=O)c1cc([N+](=O)[O-])cc2ccc(-c3ccccc3)nc12 | 26.3 | 39.5 | 31.2 | 20 | > 60.9 | TGI (NCI/ADR-RES ovarian): 9.97 µM
Cn1cc(NC(=O)c2cc(NC(=O)CCCCCC(=O)Nc3cc(C(=O)Nc4cc(C(=O)NCCC(=N)N)n(C)c4)n(C)c3)cn2C)cc1C(=O)NCCC(=N)N | > 100 | > 100 | > 100 | 92.8 | > 100 | –
CCOC(=O)C(=O)Nc1c(C)cccc1CC | > 100 | > 100 | > 100 | > 100 | > 100 | –
Nc1ccc2c(c1)[O][Sn]([c]1ccccc1)([c]1ccccc1)[O]C2=O | 29 | 15.4 | 31.9 | 23.9 | 23.4 | GI50 (PC-3 prostate): 12.4 µM; TGI (PC-3 prostate): 24.9 µM; GI50 (DU-145 prostate): 15.5 µM; TGI (DU-145 prostate): 28.9 µM; GI50 (HOP-18 NSCLC): 15.6 µM; GI50 (DLD-1 colon): 4.24 µM; GI50 (KM20L2 colon): 18 µM; GI50 (BT-549 breast): 1.98 µM; TGI (BT-549 breast): 6.4 µM; GI50 (MDA-MB-231 breast): 5.11 µM; TGI (MDA-MB-231 breast): 11.6 µM; GI50 (M19-MEL melanoma): 11 µM; GI50 (SNB-78 CNS): 5.31 µM; GI50 (NCI/ADR-RES ovarian): 9.08 µM; TGI (NCI/ADR-RES ovarian): 30.2 µM
COc1cc(C(C#N)NNC(=O)c2ccccc2O)ccc1O (stereo not given) | 97.9 | > 100 | > 100 | > 100 | > 100 | –
O=C(c1ccco1)N(C(=S)N1CCN(c2ccccc2)CC1)c1ccccc1 | > 100 | > 100 | > 100 | > 100 | > 100 | –
CCOC(OC1=C(C#N)CCC1)C(CC)[Se]c1ccccc1 (stereo not given) | 69.5 | 41.2 | 64.7 | 30.3 | > 100 | –
O=c1oc2c3ccc4ccccc4c3n(Cc3nc4ccccc4[nH]3)c2c2ccccc12 | > 100 | > 100 | > 100 | > 100 | > 100 | –
Cn1nnnc1[N-]Cc1ccccc1.[Au+].c1ccc([PH+](c2ccccc2)c2ccccc2)cc1 | 4.98 | 4.59 | 29.8 | 25.3 | > 66.9 | GI50 (HOP-18 NSCLC): 2.25 µM; GI50 (DLD-1 colon): 1.91 µM; GI50 (KM20L2 colon): 8.56 µM; GI50 (M19-MEL melanoma): 3.32 µM; GI50 (SNB-78 CNS): 6.86 µM
Cc1c2ncccc2c(C)c2c1[nH]c1ccccc12 | 27.3 | 23.2 | 22.6 | 26.1 | 36 | –
CCCc1ccc(N=Cc2cc(OC)c(OC)c(OC)c2)cc1 | > 100 | > 100 | > 100 | > 100 | > 100 | –
O=C1c2cccc3cc([N+](=O)[O-])cc(c23)C(=O)N1CCCN1CCN(CCCN2C(=O)c3cccc4cc([N+](=O)[O-])cc(c34)C2=O)CC1 | 7.81 | > 100 | > 100 | 2.56 | 12.9 | –
c1cncc(C2c3[nH]c4ccccc4c3CCN2CCN2CCCCC2)c1 (stereo not given) | > 100 | > 100 | > 100 | > 100 | > 100 | –
CC1=C(N2CC2)C(=O)c2nc3n(c2C1=O)CCC3O (stereo not given) | > 100 | – | 5.95 | 3.57 | 0.131 | TGI (DU-145 prostate): 0.0717 µM; TGI (BT-549 breast): 0.0377 µM
CCCN(CCCCC(NC(C)=O)C(=O)NCc1ccccc1)C(=O)NC (stereo not given) | – | > 100 | > 100 | > 100 | > 100 | –
CCCCCCCCCCCC(=O)C1=C(O)C(O)CCC1=O (stereo not given) | 86.5 | > 100 | 24.9 | 44.6 | 55.8 | –
CC(C)(C)C([O-])=C1C(=O)c2ccccc2C1=O.CC(C)(C)C([O-])=C1C(=O)c2ccccc2C1=O.CC[O-].CC[O-].[Ti+4] | 83.3 | > 100 | > 100 | > 100 | 93.8 | GI50 (HOP-18 NSCLC): 18.2 µM; GI50 (DLD-1 colon): 46.9 µM; GI50 (KM20L2 colon): 29.2 µM; GI50 (M19-MEL melanoma): 31.5 µM; GI50 (SNB-78 CNS): 28.4 µM
CC1(C)OC2C(=O)OC(COCc3ccccc3)C2O1 (stereo not given) | > 100 | > 100 | > 100 | > 100 | > 100 | –
COc1ccc(N=Cc2ccc(N(CCC#N)CCC#N)cc2)cc1 | > 100 | > 100 | > 100 | > 91.8 | > 100 | TGI (PC-3 prostate): > 100 µM; TGI (DU-145 prostate): > 100 µM; TGI (BT-549 breast): > 100 µM; TGI (MDA-MB-231 breast): > 100 µM; TGI (NCI/ADR-RES ovarian): > 100 µM
O=C(O)c1[nH]c(C(=O)O)c(CC(F)(F)C(F)(F)C(F)(F)F)c1CC(F)(F)C(F)(F)C(F)(F)F | > 100 | > 100 | > 100 | > 100 | > 100 | –
Cn1c(=O)c2c(nc3n2CCC(=O)N3)n(C)c1=O | – | > 100 | > 100 | > 100 | > 100 | –
[Cl][Sn]([c]1ccccc1)[c]1ccccc1 | 9.24 | 13.7 | 30.4 | – | 31 | GI50 (HOP-18 NSCLC): 3.27 µM; GI50 (DLD-1 colon): 3.65 µM; GI50 (KM20L2 colon): 14.9 µM; GI50 (SNB-78 CNS): 6.96 µM
CCCCS(=N)(=O)CC[C@H](N)C(=O)O (stereo not given in full) | > 5000 | > 5000 | > 5000 | > 5000 | > 5000 | GI50 (PC-3 prostate): > 10000 µM; TGI (PC-3 prostate): > 10000 µM; GI50 (DU-145 prostate): > 10000 µM; TGI (DU-145 prostate): > 10000 µM; GI50 (BT-549 breast): > 10000 µM; TGI (BT-549 breast): > 10000 µM; GI50 (MDA-MB-231 breast): > 10000 µM; TGI (MDA-MB-231 breast): > 10000 µM; GI50 (NCI/ADR-RES ovarian): 1770 µM; TGI (NCI/ADR-RES ovarian): 5000 µM and > 6020 µM
Cc1c(C(=O)CC(=O)C(=O)NC2C3CC4CC(C3)CC2C4)[n+](=O)c2ccccc2n1[O-] (stereo not given) | > 100 | – | > 100 | > 100 | > 100 | –
Cc1ccc(-n2c(C)nc3c2C(=O)c2ccccc2C3=O)cc1 | – | > 100 | > 100 | 25.7 | > 100 | –
COC(=O)c1ccc(OCc2ccc3oc(=O)c(-c4ccccc4)nc3c2)cc1 | > 100 | 38.4 | – | > 100 | > 100 | –
CCc1cccc(C)c1NC(=O)CC1Sc2ccccc2NC1=O (stereo not given) | > 100 | > 100 | > 100 | > 100 | > 100 | –
